Data as given in ChEMBL document CHEMBL1201862, “PubChem BioAssay data set” (2004).
The source made the active and inactive calls.

Tests used:
[1] = target: Glycogen synthase kinase-3 alpha (Homo sapiens, UniProt P49840); assay: Inhibition of Human GSK-3 alpha Activity Measured in Biochemical System Using Microfluidics - 2063-06_Inhibitor_Dose_DryPowder_Activity. [Related pubchem assays (depositor defined):AID2709]
[2] = target: Glycogen synthase kinase-3 beta (Homo sapiens, UniProt P49841); assay: Inhibition of Human GSK-3 beta Activity Measured in Biochemical System Using Microfluidics - 2063-05_Inhibitor_Dose_DryPowder_Activity. [Related pubchem assays (depositor defined):AID2709]
Candida albicans [3] = assay: growth inhibition of resistant C. albicans, dose response, CaCi-8 strain, fluconazole, dry powder, set 4 (AID 488950); format: functional, organism-based
Candida albicans [4] = assay: C. albicans growth inhibition with fluconazole, dose response, antifungal resistance reversal project, CaCi-2 strain, Alamar Blue, dry powder, set 2 (AID 488930); format: functional, organism-based
Candida albicans [5] = assay: fluconazole resistance reversal in C. albicans, dose response, CaCi-2 strain, Alamar Blue, dry powder, set 4 (AID 488943); format: functional, organism-based
Candida albicans [6] = assay: growth inhibition of azole-resistant C. albicans, dose response, CaCi-8 strain, Alamar Blue, dry powder, set 2 (AID 488909); format: functional, organism-based
INS1 = assay: protection of INS-1E cells from cytokine death, dose response, ATP luminescence, dry powder (AID 488844); format: functional, cell-based; settings: Rattus norvegicus
HEK293 [7] = assay: cytotoxicity in HEK293T NF-kB-Luc cells, SAR follow-up, cytotoxicity control for NF-kB activator project, cell-based, resazurin fluorescence (AID 493251); format: functional; settings: Homo sapiens
Jurkat = assay: SAR Analysis of small molecule inhibitors of T-cell specific antigen receptor-induced NF-kB activation in a Jurkat cell line using a luminescence assay - Set 2. [Related pubchem assays (depositor defined):AID435003, AID435012, AID465]; format: functional, cell-based; settings: Homo sapiens
HEK293 [8] = assay: SAR Analysis of small molecule inhibitors of T-cell specific antigen receptor-induced NF-kB activation in a HEK-293T cell line using a luminescence assay - Set 2. [Related pubchem assays (depositor defined):AID435003, AID435012, AID489026]; format: functional, cell-based; settings: Homo sapiens
[9] = target: Delta-type opioid receptor (Homo sapiens, UniProt P41143); assay: Counterscreen for agonists of heterodimerization of the mu 1 (OPRM1) and delta 1 (OPRD1) opioid receptors: Luminescence-based cell-based high throughput dose response assay to identify agonists of OPRD1 homodimerization. [Related pubchem assays (depositor defined):AID504326, AID504355, AID504692, AID504904, AID504905]; format: functional
Mu-type opioid receptor = Mu-type opioid receptor (Homo sapiens, UniProt P35372); assay: Counterscreen for agonists of heterodimerization of the mu 1 (OPRM1) and delta 1 (OPRD1) opioid receptors: Luminescence-based cell-based high throughput dose response assay to identify agonists of OPRM1 homodimerization.; format: functional;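 note: U2OS cells expressing OPRM1 and beta-arrestin as split beta-galactosidase partners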
[10] = target: 5-hydroxytryptamine receptor 5A (Homo sapiens, UniProt P47898); assay: Counterscreen for agonists of OPRM1-OPRD1 heterodimerization: luminescence-based cell-based high throughput dose response assay to identify agonists of 5-hydroxytryptamine (serotonin) 5A receptor (HTR5A). [Related pubchem assays (depositor defined):AID504326, AID504355, AID504692, AID504904, AID504905]; format: functional
[11] = inhibitors of HIV Env-driven cell fusion, dose response, cherry-pick (AID 652057); format: functional, cell-based
[12] = CEM21 lymphoblast cell cytotoxicity, dose response, cytotoxicity control for viral fusion inhibitor project, CellTiter-Glo luminescence, cherry-picked (AID 652042); format: functional, cell-based;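 note: potency for signal decrease meaning cytotoxicity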
Paired box protein Pax-8 = Paired box protein Pax-8 (Homo sapiens, UniProt Q06710); assay: inhibitors of PAX8-driven TPO luciferase reporter, dose response, RMG-I cells, cherry-pick (AID 687027); format: functional, cell-based;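 note: luciferase reporter driven by Pax8 target thyroperoxidase promoter measured by SteadyGlo luminescence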
Cytochrome P450 2D6 = Cytochrome P450 2D6 (Homo sapiens, UniProt P10635);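 note: CYP2D6 member of a cytochrome P450 panel assay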
[13] = target: Voltage-gated inwardly rectifying potassium channel KCNH2 (Homo sapiens, UniProt Q12809); settings: Potency;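 note: confirmatory quantitative high-throughput screen measuring inhibition of hERG channel activity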
Voltage-gated inwardly rectifying potassium channel KCNH2, sequence (Q12809 whole entry): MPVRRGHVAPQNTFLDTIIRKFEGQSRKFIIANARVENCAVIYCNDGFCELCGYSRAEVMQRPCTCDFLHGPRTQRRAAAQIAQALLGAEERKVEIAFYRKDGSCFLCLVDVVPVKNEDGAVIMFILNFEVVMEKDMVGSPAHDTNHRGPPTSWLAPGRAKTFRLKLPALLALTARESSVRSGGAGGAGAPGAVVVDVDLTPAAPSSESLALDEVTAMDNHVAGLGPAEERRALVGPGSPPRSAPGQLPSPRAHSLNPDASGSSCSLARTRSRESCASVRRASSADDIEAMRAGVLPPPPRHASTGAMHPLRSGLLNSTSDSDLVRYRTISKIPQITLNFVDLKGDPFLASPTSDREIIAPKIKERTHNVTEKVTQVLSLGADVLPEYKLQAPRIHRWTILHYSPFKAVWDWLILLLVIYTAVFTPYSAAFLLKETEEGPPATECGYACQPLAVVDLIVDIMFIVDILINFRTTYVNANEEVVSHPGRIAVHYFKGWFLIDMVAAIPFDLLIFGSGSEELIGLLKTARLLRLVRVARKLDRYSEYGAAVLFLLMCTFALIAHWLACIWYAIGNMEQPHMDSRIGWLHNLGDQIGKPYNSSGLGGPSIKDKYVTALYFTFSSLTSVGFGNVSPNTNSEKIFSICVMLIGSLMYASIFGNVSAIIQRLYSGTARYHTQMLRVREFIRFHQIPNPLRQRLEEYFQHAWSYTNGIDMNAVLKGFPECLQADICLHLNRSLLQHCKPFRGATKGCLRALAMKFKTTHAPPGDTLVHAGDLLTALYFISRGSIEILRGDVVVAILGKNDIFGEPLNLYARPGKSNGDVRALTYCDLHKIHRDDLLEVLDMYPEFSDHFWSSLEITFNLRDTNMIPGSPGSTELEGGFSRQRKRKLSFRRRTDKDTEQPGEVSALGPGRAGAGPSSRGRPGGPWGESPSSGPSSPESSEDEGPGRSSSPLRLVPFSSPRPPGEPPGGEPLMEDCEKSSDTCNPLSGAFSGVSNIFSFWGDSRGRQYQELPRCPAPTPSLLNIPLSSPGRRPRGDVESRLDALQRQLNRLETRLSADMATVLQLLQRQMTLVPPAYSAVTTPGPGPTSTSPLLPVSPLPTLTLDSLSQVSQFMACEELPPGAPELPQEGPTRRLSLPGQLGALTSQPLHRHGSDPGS

Cytochrome P450 2D6, sequence (P10635 whole entry): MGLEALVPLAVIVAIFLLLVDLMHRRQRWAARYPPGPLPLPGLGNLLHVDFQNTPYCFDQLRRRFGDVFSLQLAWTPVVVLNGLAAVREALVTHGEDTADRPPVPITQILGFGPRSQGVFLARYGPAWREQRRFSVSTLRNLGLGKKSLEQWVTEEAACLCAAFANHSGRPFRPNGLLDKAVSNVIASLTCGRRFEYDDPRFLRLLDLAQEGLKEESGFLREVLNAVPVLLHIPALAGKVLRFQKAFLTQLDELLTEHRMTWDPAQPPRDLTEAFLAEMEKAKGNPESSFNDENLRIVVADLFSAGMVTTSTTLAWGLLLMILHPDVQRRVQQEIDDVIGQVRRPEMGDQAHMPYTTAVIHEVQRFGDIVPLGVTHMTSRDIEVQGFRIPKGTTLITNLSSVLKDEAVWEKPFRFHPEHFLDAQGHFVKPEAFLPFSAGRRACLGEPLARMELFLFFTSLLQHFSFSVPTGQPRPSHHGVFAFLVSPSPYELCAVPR
Delta-type opioid receptor, sequence (P41143 whole entry): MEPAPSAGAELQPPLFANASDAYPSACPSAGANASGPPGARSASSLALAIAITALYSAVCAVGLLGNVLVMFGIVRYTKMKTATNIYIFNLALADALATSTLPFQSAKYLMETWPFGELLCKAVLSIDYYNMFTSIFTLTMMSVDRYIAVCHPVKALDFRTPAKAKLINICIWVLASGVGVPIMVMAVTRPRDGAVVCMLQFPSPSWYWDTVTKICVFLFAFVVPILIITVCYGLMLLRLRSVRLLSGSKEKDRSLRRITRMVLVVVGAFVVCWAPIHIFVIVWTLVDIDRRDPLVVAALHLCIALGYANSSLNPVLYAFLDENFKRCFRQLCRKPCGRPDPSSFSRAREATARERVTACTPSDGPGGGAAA
Paired box protein Pax-8, sequence (Q06710 whole entry): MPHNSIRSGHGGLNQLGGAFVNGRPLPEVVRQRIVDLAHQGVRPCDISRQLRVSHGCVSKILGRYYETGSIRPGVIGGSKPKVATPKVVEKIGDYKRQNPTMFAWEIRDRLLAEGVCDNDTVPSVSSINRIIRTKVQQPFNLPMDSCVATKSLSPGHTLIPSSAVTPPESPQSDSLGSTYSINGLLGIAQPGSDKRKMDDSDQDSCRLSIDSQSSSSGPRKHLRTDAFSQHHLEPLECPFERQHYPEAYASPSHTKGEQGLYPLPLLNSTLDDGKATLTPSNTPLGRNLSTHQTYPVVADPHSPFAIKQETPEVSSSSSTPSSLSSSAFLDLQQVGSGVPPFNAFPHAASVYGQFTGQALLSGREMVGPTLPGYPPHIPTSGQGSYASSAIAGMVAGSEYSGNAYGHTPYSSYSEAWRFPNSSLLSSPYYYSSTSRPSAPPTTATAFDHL
5-hydroxytryptamine receptor 5A, sequence (P47898 whole entry, the tested form may be a part): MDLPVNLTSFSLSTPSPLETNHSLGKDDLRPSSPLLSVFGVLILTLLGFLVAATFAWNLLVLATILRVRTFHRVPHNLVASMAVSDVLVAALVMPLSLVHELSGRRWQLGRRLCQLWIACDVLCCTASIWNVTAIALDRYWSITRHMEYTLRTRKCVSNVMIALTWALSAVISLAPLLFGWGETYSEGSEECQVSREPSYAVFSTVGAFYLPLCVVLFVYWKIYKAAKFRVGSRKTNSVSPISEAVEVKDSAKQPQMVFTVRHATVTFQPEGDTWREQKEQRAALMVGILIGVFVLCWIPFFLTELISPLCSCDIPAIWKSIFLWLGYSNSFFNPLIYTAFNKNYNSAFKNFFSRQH
Glycogen synthase kinase-3 beta, sequence (P49841 whole entry): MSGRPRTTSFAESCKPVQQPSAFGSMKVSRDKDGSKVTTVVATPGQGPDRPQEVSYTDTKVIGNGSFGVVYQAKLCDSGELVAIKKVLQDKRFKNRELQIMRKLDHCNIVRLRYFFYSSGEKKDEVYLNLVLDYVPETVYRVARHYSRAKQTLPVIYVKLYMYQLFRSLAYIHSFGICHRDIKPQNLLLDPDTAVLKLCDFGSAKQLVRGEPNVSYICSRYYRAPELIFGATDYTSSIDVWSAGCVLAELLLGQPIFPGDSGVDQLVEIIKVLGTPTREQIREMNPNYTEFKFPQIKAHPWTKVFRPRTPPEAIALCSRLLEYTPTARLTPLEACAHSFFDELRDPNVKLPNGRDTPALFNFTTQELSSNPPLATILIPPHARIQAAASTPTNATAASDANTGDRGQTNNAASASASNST
Mu-type opioid receptor, sequence (P35372 whole entry): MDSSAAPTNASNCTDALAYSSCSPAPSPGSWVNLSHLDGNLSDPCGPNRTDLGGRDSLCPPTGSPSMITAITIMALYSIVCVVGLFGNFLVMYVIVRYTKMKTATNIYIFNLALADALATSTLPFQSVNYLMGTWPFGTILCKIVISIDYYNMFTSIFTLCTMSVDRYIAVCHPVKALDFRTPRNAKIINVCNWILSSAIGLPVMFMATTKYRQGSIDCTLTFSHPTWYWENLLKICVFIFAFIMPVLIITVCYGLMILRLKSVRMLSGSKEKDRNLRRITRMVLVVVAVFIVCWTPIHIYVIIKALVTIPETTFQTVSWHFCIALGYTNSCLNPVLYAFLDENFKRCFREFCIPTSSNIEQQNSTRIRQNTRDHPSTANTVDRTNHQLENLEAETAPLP
Glycogen synthase kinase-3 alpha, sequence (P49840 whole entry): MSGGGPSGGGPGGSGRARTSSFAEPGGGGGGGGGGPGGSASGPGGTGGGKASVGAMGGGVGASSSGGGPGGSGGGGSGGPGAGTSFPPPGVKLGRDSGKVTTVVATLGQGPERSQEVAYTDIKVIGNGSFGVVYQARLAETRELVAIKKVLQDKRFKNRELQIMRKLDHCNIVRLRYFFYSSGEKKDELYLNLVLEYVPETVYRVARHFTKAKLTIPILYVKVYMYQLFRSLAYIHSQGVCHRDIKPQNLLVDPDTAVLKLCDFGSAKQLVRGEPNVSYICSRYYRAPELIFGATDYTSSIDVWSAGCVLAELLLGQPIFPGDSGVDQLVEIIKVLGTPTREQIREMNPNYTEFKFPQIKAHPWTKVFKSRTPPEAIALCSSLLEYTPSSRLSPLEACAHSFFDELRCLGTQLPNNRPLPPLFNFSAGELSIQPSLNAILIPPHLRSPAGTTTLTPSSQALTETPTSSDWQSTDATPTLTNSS

In the case of `COC(=O)c1ccc(CSc2ccc3nnc(-c4ccc(OC)cc4)n3n2)o1`, the AC50 [1] is reported as 6.84 µM (active) and the AC50 [2] is reported as 1.94 µM (active).
With `O=C(c1ccc(Cl)nc1)N1CCN(c2ccnc3cc(Cl)ccc23)CC1` the AC50 (Candida albicans [3]) was 7.3 µM (active), the AC50 (Candida albicans [4]) was 2.99 µM (active) and the AC50 (Candida albicans [5]) was 3.16 µM (active). The AC50 (Candida albicans [6]) was < 0.195 µM (active).
In the case of `COc1ccc(S(=O)(=O)N(C)C[C@@H]2Oc3c(NS(=O)(=O)c4ccc(C)cc4)cccc3C(=O)N([C@@H](C)CO)C[C@H]2C)cc1`, the AC50 (INS1) is reported as > 235 µM (inactive).
With `CC(C)(C)NC(=O)CCc1nc(-c2ccc(C(C)(C)C)cc2)no1` the IC50 (HEK293 [7]) was 39 µM (inactive), the IC50 (Jurkat) was 2.77 µM (active) and the IC50 (HEK293 [8]) was 6.68 µM (active).
With `CCN(c1nc(N)c(C(=O)NC(=N)N)nc1Cl)C(C)C` [5-(N-ETHYL-N-ISOPROPYL)AMILORIDE] the EC50 [9] was 64.1 µM (inactive), the EC50 (Mu-type opioid receptor) was > 92.5 µM (inactive) and the EC50 [10] was 85.8 µM (inactive). For the same molecule, the AC50 [11] was 1.98 µM (active), the AC50 [12] was 63.8 µM (active) and the AC50 (Paired box protein Pax-8) was 20.9 µM (active). The AC50 (Cytochrome P450 2D6) was 31.6 µM (inconclusive) and the AC50 [13] was 35.5 µM (inconclusive).
